Patent publication US20230265614A1, “WATER INSOLUBLE, HIGH MELTING POINT SACCHARIDE FATTY ACID ESTERS (SFAE)” (GREENTECH GLOBAL PTE. LTD., priority 2021, published 2023)

Test: Solubility in water at 25° C. of specific SFAEs
Format: physicochemical
Conditions: water insoluble = does not dissolve in water at 25° C.

Substance | Solubility in Water at 25° C.
trehalose monomyristate | Insoluble
trehalose dimyristate | Insoluble
raffinose monolaurate | soluble
trehalose monolaurate | soluble
trehalose monostearate | Insoluble
raffinose monostearate | soluble
trehalose distearate | Insoluble
trehalose monopalmitate | Insoluble
trehalose dipalmitate | Insoluble
trehalose dilaurate | Insoluble
